The results in this text go back to patent US12357598B2, “Treatment of neurodevelopmental disorders” (THE REGENTS OF THE UNIVERSITY OF CALIFORNIA, priority 2018, dated 2025).

In this assay the target is T1, sEH (Homo sapiens, UniProt P34913).
T1 sequence (P34913 1-555): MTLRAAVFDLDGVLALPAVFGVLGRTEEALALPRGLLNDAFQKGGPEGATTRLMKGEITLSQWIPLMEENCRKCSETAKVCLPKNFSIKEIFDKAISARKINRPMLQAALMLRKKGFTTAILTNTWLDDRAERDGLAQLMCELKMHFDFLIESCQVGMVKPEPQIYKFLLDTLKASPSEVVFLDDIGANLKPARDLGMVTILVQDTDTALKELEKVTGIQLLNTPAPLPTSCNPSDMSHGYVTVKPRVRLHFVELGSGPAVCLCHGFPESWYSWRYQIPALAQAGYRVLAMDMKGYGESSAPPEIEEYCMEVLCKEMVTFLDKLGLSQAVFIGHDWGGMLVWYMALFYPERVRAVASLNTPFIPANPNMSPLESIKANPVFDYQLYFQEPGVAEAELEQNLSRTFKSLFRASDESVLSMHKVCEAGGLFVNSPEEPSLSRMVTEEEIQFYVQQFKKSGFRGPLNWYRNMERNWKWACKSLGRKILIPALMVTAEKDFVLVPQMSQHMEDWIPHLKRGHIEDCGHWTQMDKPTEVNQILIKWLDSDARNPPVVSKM
The experiment in a line: Testing of ureas and lipid alkoxides as sEH inhibitors. The format is biochemical. An excerpt:
(Both the 1- and the 2-adamantyl ureas have been tested and have about the same high activity as an inhibitor of sEH. Thus, isomers of adamantyl dodecyl urea are preferred inhibitors. It is further expected that N, N′-dodecyl-cyclohexyl urea (DCU), and other inhibitors of sEH, and particularly dodecanoic acid ester derivatives of urea, are suitable for use in the methods. Preferred inhibitors include without limitation:
U.S. Pat. No. 5,955,496 (the '496 patent) also sets forth a number of sEH inhibitors which can be used in the methods. One category of these inhibitors comprises inhibitors that mimic the substrate for the enzyme. The lipid alkoxides (e.g., the 9-methoxide of stearic acid) are an exemplar of this group of inhibitors.

For `CCCCCCCCCCCCNC(=O)NC12CC3CC(CC(C3)C1)C2` [ADU, N-Adamantyl-N′-dodecyl urea], the “activity as an inhibitor of sEH” value was “particularly high activity”.
